# Laboratory results as given in the METLIN SMRT retention time set (Domingo-Almenara et al. 2019).
# Test: gradient 5% acetonitrile 3 min, to 50% in 2 min, to 85% in 15 min, held 3 min, 100 µL/min
# Details: column: Zorbax Extend-C18 2.1 x 50 mm; eluents: water / acetonitrile, 0.1% formic acid
# In short: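 The system's dead and dwell volumes were 40 μL and 900 μL, with a Zorbax Extend-C18 column (2.1 × 50 mm, 1.8 μm) run at 100 μL/min in water and acetonitrile containing 0.1% formic acid each. Pure standards were analyzed in mixtures of ~100 molecules by HPLC–quadrupole time-of-flight mass spectrometry in positive and negative ionization mode. Retention time was assigned from computationally picked, manually inspected adduct peaks.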
row,Structure (SMILES),RP-LC retention time [s]
1,CC(=O)N1CCc2cc(-c3ccc(C(=O)NC4CCS(=O)(=O)C4)cc3)ccc21 (stereo not drawn),676
2,CCCC(=O)Nc1nc(-c2ccc3c(c2)N(C)C(=O)CO3)cs1,821
3,CCOC(=O)Cc1csc(NC(=O)c2cc(=O)c3ccccc3o2)n1,754
4,O=S(=O)(c1cccnc1)N1CCN(Cc2nnnn2-c2ccc(F)c(F)c2)CC1,733
5,COC1CCC12CCN(C(=O)c1cnccn1)CC2 (stereo not drawn),657
6,O=C(NCc1ccccn1)C1CCN(c2cnc(N3CCCC3)nc2)CC1,547
7,COc1cccc(N2C=C(C(=O)N3CCCC3)S(=O)(=O)c3ccc(F)cc32)c1,819
8,COC(=O)CC(NC(=O)N1CCCn2nc(-c3ccncc3)cc2C1)c1ccccc1 (stereo not drawn),608
9,O=C(NCCN1CCOC(c2ccccc2)C1)c1ccc(Cl)c(Cl)c1 (stereo not drawn),610
10,O=C(C1CC(=O)N(c2n[nH]c3cccc(F)c23)C1)N1CCc2ccccc2C1 (stereo not drawn),752
11,O=C(CCCN1C(=O)C(c2ccccc2)Oc2cccnc21)NCCCN1CCOCC1 (stereo not drawn),615
12,Cc1oc(-c2[nH]ncc2C(=O)N(C)C)cc1S(=O)(=O)N1CCOCC1,604
13,COc1cccc(-c2cc(C3CCN(C(=O)NC4CCCC4)CC3)[nH]n2)c1,790
14,Cc1nsc2ncc(C(=O)N3CCOCC3)c(N3CCC(C(=O)Nc4ccc(Cl)cc4)CC3)c12,846
15,O=C1C2CCCN2C(c2ccncc2)N1c1cccc(Cl)c1 (stereo not drawn),587
16,O=C(c1ccc2c(c1)nnn2Cc1ccccc1)N1CCN(c2ncccn2)CC1,766
17,CC(C)N1C(=O)C2(CCCCC2)C1C(=O)N1CCOCC1 (stereo not drawn),633
18,Cc1c(Cl)cccc1NC(=O)/C=C/c1ccccc1,947
19,O=C(Cn1c(Cc2ccc(Cl)cc2)nc2ccccc21)N1CCCCCC1,739
20,O=C(NC1CC1)C1Cc2ccccc2CN1S(=O)(=O)c1ccc(Cl)cc1 (stereo not drawn),909
21,COc1nc2ccccc2nc1N1CCCC(C(=O)N2CCN(c3ccccc3)CC2)C1 (stereo not drawn),1220
22,O=C(NCc1cccnc1)C1c2ccccc2C(=O)N1Cc1ccc2c(c1)OCO2 (stereo not drawn),609
23,O=C(Cn1nc2n(c1=O)CCCC2)Nc1ccc2c(c1)OCCO2,635

row,Structure (SMILES),RP-LC retention time [s]
1,N#Cc1ccc2ccn(CC(=O)N3CCCc4ccccc43)c2c1,963
2,COc1cc(F)c(F)c(Nc2ccc(I)cc2F)c1NS(=O)(=O)C1(C[C@H](O)CO)CC1,1050
3,Cc1n[nH]c(C)c1S(=O)(=O)N1CCN(c2ccc3nnc(C4CC4)n3n2)CC1,604
4,CC(C)c1ccc(NC(=O)Cn2cnc3c2c(=O)n(C)c(=O)n3C)cc1,816
5,O=C(NCc1noc(-c2ccco2)n1)c1coc(C2CC2)n1,736
6,CCCCN1C(=O)C(NC(=O)c2ccccc2OC)(C(F)(F)F)C2=C1CC(C)(C)CC2=O (stereo not drawn),1080
7,O=C(NC1CC1)c1cc(-c2cccs2)on1,788
8,CCCN(C)S(=O)(=O)c1cc(-c2nnc(C)o2)co1,768
9,COc1cccc(CN2CCc3nn(C)c(=O)n3CC2)n1,544
10,CC(C)CNC(=O)C1CCN(C(=O)Nc2ccc(NC(=O)NC3CCCC3)cc2)CC1,728
11,COc1ccc(OC)c(S(=O)(=O)N2CCCC(C(=O)NCc3ccncc3)C2)c1 (stereo not drawn),604
12,Cc1cc(C)cc(NC(=O)C2CCCN(c3ncnc4c3nc3n4CCCCC3)C2)c1 (stereo not drawn),907
13,O=C(c1ccc(-c2ccsc2)nc1)N1CCN(c2ccccn2)CC1,604
14,COc1ccccc1C(=O)N1CCC(c2cc3n(n2)CCCNC3=O)CC1,596
15,CC1CCCN(C(=O)c2ccc(CN3CCN(Cc4ccc(F)cc4)C(=O)C3=O)cc2)C1 (stereo not drawn),788
16,O=C(Cc1nnc(-c2cccc(F)c2)o1)NCC1CC1,722
17,CN(C)CCNC(=O)c1csc(-c2ccc(N3CCCC3)nc2)n1,548
18,COc1ccc(CC(C)(O)CNC(=O)c2cc(C)oc2C)cc1 (stereo not drawn),739
19,Cc1cc(S(=O)(=O)C(CNC(=O)c2cccs2)c2ccco2)ccc1F (stereo not drawn),815
20,CCn1cnc(S(=O)(=O)N2CCC(C(=O)Nc3ccc(OC)c(OC)c3)CC2)c1,704
21,COC[C@@H]1CN(S(=O)(=O)c2ccccc2)C[C@H]1c1nc(C)no1,803
22,CC(C)Cc1noc(C2(F)CCN(S(=O)(=O)c3ccc(Cl)c(Cl)c3)CC2)n1,1300

# The next lines start with the values.
row,RP-LC retention time [s],Structure (SMILES)
1,657,O=c1c2c(nc(SCc3ccccn3)n1CCc1ccccc1)CCS2
2,1060,CCOc1ccc(C(=O)NC2(c3nc(C(C)C)no3)CCCCC2)cc1OCC
3,1010,COc1ccc(-c2noc(C3CC(=O)N(c4cc(Cl)ccc4OC)C3)n2)c(OC)c1 (stereo not drawn)
4,744,O=C(Cc1csc2nc(-c3ccccc3)cn12)Nc1ccc2c(c1)OCCO2
5,888,COc1ccc(CNC(=O)Cn2c(=O)cc(-c3nc(C4CC4)no3)c3ccccc32)cc1
6,1080,CCOc1ccc(-c2nc(-c3cccc(-c4ccn[nH]4)c3)no2)cc1OCC
7,660,CCC(C(=O)NCc1ccc2c(c1)ncn2CC)c1ccccc1 (stereo not drawn)
8,813,COC(=O)c1ccc(-c2nc3cnccn3c2Nc2ccc3c(c2)OCCO3)cc1
9,909,O=C(Cc1csc2nc(-c3cccc(Br)c3)cn12)NCc1ccc(F)cc1
10,931,COc1ccc(OC)c(NC(=O)C2CCN(S(=O)(=O)c3cc(-c4noc(C)n4)cs3)CC2)c1
11,970,CCOc1ccccc1OCc1nn2c(-c3ccoc3C)nnc2s1
12,678,CCc1nc2cc3c(cc2n1CC(=O)Nc1ccc(C)cc1)OCCO3
13,887,Cc1ccc(N(Cc2nc3nc(C)c(Cl)c(C)n3n2)C(=O)c2ccco2)cc1
14,939,O=C(Cc1ccccc1Br)N1CCN(c2cc(-c3ccc(Cl)cc3)[nH]n2)CC1
15,825,CCCNC(=O)N1CCc2c(c(-c3nc(-c4ccccc4)no3)nn2C)C1
16,715,COc1ccc(CNC(=O)c2cnc(OC)nc2)c(OC)c1
17,859,Cc1cc(OCC(=O)N(C)c2ccccc2)nc(N2CCN(c3ccccc3)CC2)n1
18,997,CCCNC(=O)c1ccc2c(=O)n(Cc3ccccc3)c(N(CC)CC)nc2c1
19,652,CNC(=O)c1c(F)cccc1Nc1nc(Nc2cc3c(cc2OC)CCN3C(=O)CN(C)C)nc2[nH]ccc12
20,1040,COc1ccccc1N1CCN(c2cc(SCC(=O)Nc3ccc(C)cc3C)ncn2)CC1
21,775,Cc1ccc(-n2ncc3c(C)nn(CC(=O)Nc4cc(C)on4)c(=O)c32)c(C)c1
22,607,COc1ccc(-c2cn3c(CC(=O)NC4CC4)csc3n2)cc1OC

row,RP-LC retention time [s],Structure (SMILES)
1,628,CCc1noc(NC(C)=O)c1-c1ccc(OC)c(S(=O)(=O)N2CCc3ccccc3C2)c1
2,758,O=C(NCc1cc(-c2ccc3c(c2)OCO3)on1)c1cc(=O)c2ccccc2o1
3,1310,Cc1ccc(C)c(-c2coc(-c3ccc(NC(=O)c4ccc(Br)o4)cc3)n2)c1
4,936,COc1ccc(OC)c(NC(=O)N(C)CCc2noc(COc3ccccc3)n2)c1
5,844,CCc1cccc(C)c1NC(=O)Cn1c(=O)c(CCC(=O)NC2CCCC2)nc2ccccc21
6,676,CCOc1ccc(CNC(=O)C2CCN(S(=O)(=O)c3cn(CC)cn3)CC2)cc1OC
7,743,O=C(NCc1ccccn1)c1cccn1Cc1noc(-c2ccc(Cl)cc2)n1
8,870,Cc1cc(N2CCN(c3ccccn3)CC2)n2nc(C(F)(F)F)c(-c3ccc(F)cc3)c2n1
9,685,CCOc1ccc2ncc(S(=O)(=O)c3ccc(Cl)cc3)c(N3CCN(CC)CC3)c2c1
10,1220,O=S(=O)(c1ccc(-c2noc(-c3ccccc3Br)n2)cc1)N1CCCC1
11,951,COc1ccc(C(=O)N2CCc3cc(-c4csc(C)n4)ccc32)cc1F
12,622,CCN1CCN(c2nnc(-c3nc(C4CC4)no3)c3ccccc23)CC1
13,989,Cc1cccc(NC(=O)CSc2nnc3c4cc(-c5ccc(C)c(C)c5)nn4ccn23)c1
14,725,COc1ccc(NC(=O)N2CCC(n3c(-c4ccoc4)nc4cccnc43)C2)cc1F (stereo not drawn)
15,855,Cc1cc(=O)n(CC(=O)Nc2ccc(Cl)cc2)c(N2CCc3ccccc3C2)n1
16,1230,Cc1cccc(OCc2nc(C)c(C(=O)Nc3nc(-c4ccc5c(c4)OCCCO5)cs3)s2)c1
17,824,COc1cc(C(=O)Nc2nc(-c3ccc4c(c3)NC(=O)CO4)cs2)cc(OC)c1OC
18,972,COc1cccc(Nc2c(-c3ccc(Br)cc3)nc3cnccn23)c1
19,681,COc1ccc(-c2ccc(=O)n(CCNC(=O)NC3CCCCC3)n2)cc1
20,699,COc1ccc2c(c1)C=C(C(=O)Nc1ccc(OC)cc1OC)C=CO2
21,648,Cc1nc(C)c(C(=O)N2CCC(c3noc(-c4ccccn4)n3)C2)s1 (stereo not drawn)
